Where “and” joins values, the source holds several entries; their conditions need not be identical. Identical values can stand only once. Inconclusive results and toxic doses are left out. Cut-off read from the data, not from the text of the source: active = T/C of 150% or more; inactive = T/C below 125%.
Test system: L1210 leukemia ip in BDF1 mice, survival T/C
Test: NCI In Vivo Anticancer Drug Screen. Data for tumor model L1210 Leukemia (intraperitoneal) in B6D2F1 (BDF1) mice
Conditions: endpoint: mean survival time, higher = longer survival
Outline: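 Ratio derived from survival: compound-dosed mice over vehicle-dosed mice, all bearing a transplantable tumor.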

[1] = dose: 100.0 mg/kg/injection, schedule: Q01DX001 (ip), vehicle: saline
[2] = dose: 200.0 mg/kg/injection, schedule: Q01DX001 (ip), vehicle: saline
[3] = dose: 400.0 mg/kg/injection, schedule: Q01DX001 (ip), vehicle: saline

Measured: T/C

COc1cc(OCc2ccccc2)c(CC(=O)O)c([N+](=O)[O-])c1
inactive: dose: 100.0 mg/kg/injection, schedule: Q01DX001 (ip), vehicle: other 104 % of control | dose: 100.0 mg/kg/injection, schedule: Q01DX009 (ip), vehicle: other 93 % of control | dose: 100.0 mg/kg/injection, schedule: Q04DX003 (ip), vehicle: other 100 % of control | dose: 200.0 mg/kg/injection, schedule: Q01DX001 (ip), vehicle: other 100 % of control | dose: 200.0 mg/kg/injection, schedule: Q01DX009 (ip), vehicle: other 106 % of control | dose: 200.0 mg/kg/injection, schedule: Q04DX003 (ip), vehicle: other 94 % of control | dose: 400.0 mg/kg/injection, schedule: Q01DX001 (ip), vehicle: other 94 % of control | dose: 400.0 mg/kg/injection, schedule: Q01DX009 (ip), vehicle: other 103 % of control | dose: 400.0 mg/kg/injection, schedule: Q04DX003 (ip), vehicle: other 94 % of control

O=C(O)C(F)(F)C(F)(Cl)C(F)(F)C(F)(Cl)C(F)(F)C(F)(Cl)C(F)(F)Cl (centres undefined) (tested in a mixture with another compound)
inactive: dose: 100.0 mg/kg/injection, schedule: Q04DX003 (ip), vehicle: saline 90 % of control | dose: 200.0 mg/kg/injection, schedule: Q04DX003 (ip), vehicle: saline 101 % of control | dose: 400.0 mg/kg/injection, schedule: Q04DX003 (ip), vehicle: saline 101 % of control

N#Cc1ccccc1CC(=O)c1ccccc1
inactive: dose: 50.0 mg/kg/injection, schedule: Q01DX001 (ip), vehicle: saline 101 % of control | [1] 97 % of control | [2] 93 % of control | [3] 100 % of control

NC(CSCc1ccc(N(CCCl)CCCl)cc1)C(=O)O (centres undefined)
inactive: dose: 2.5 mg/kg/injection, schedule: Q01DX Z (ip), vehicle: carboxymethylcellulose (CMC) 124 % of control | dose: 4.0 mg/kg/injection, schedule: Q01DX Z (ip), vehicle: other 112 % of control | dose: 7.0 mg/kg/injection, schedule: Q01DX009 (ip), vehicle: saline 109 % of control | dose: 7.0 mg/kg/injection, schedule: Q01DX Z (ip), vehicle: saline 111 % of control | dose: 10.0 mg/kg/injection, schedule: Q01DX001 (ip), vehicle: carboxymethylcellulose (CMC) 87 % of control | dose: 11.0 mg/kg/injection, schedule: Q01DX009 (ip), vehicle: saline 103 % of control | dose: 11.0 mg/kg/injection, schedule: Q01DX Z (ip), vehicle: saline 118 % of control | dose: 16.0 mg/kg/injection, schedule: Q01DX009 (ip), vehicle: saline 111 % of control | dose: 16.0 mg/kg/injection, schedule: Q01DX Z (ip), vehicle: saline 114 % of control | dose: 24.0 mg/kg/injection, schedule: Q01DX009 (ip), vehicle: saline 103 % of control | dose: 24.0 mg/kg/injection, schedule: Q01DX Z (ip), vehicle: saline 124 % of control | dose: 30.0 mg/kg/injection, schedule: Q01DX Z (ip), vehicle: other 123 % of control | dose: 32.0 mg/kg/injection, schedule: Q01DX009 (ip), vehicle: saline 113 % of control | dose: 40.0 mg/kg/injection, schedule: Q01DX001 (ip), vehicle: carboxymethylcellulose (CMC) 95 % of control | dose: 40.0 mg/kg/injection, schedule: Q01DX Z (ip), vehicle: carboxymethylcellulose (CMC) 100 % of control | dose: 80.0 mg/kg/injection, schedule: Q01DX001 (ip), vehicle: carboxymethylcellulose (CMC) 91 % of control
active: dose: 10.0 mg/kg/injection, schedule: Q01DX Z (ip), vehicle: carboxymethylcellulose (CMC) 157 % of control | dose: 20.0 mg/kg/injection, schedule: Q01DX Z (ip), vehicle: carboxymethylcellulose (CMC) 152 % of control and 168 % of control

CCNC(=S)Nc1ccccc1
inactive: dose: 37.5 mg/kg/injection, schedule: Q01DX009 (ip), vehicle: Klucel (hydroxypropylcellulose) (HPC) 102 % of control | dose: 75.0 mg/kg/injection, schedule: Q01DX009 (ip), vehicle: Klucel (hydroxypropylcellulose) (HPC) 104 % of control | dose: 150.0 mg/kg/injection, schedule: Q01DX009 (ip), vehicle: Klucel (hydroxypropylcellulose) (HPC) 115 % of control

CC(=O)OCC1OC(N2C(=O)/C(=C/c3ccc(Cl)cc3)SC2=S)C(OC(C)=O)C(OC(C)=O)C1OC(C)=O (centres undefined)
inactive: dose: 25.0 mg/kg/injection, schedule: Q01DX005 (ip), vehicle: other 97 % of control

CC1(CCC#N)CCC(N)=CC1=O (centres undefined)
inactive: dose: 100.0 mg/kg/injection, schedule: Q01DX001 (ip), vehicle: carboxymethylcellulose (CMC) 96 % of control | dose: 200.0 mg/kg/injection, schedule: Q01DX001 (ip), vehicle: carboxymethylcellulose (CMC) 98 % of control | dose: 400.0 mg/kg/injection, schedule: Q01DX001 (ip), vehicle: carboxymethylcellulose (CMC) 96 % of control

O=S(=O)(O)CS(=O)(=O)O.[Ag]
inactive: dose: 5.0 mg/kg/injection, schedule: Q01DX001 (ip), vehicle: saline 101 % of control | dose: 10.0 mg/kg/injection, schedule: Q01DX001 (ip), vehicle: saline 95 % of control | dose: 20.0 mg/kg/injection, schedule: Q01DX001 (ip), vehicle: saline 97 % of control | dose: 40.0 mg/kg/injection, schedule: Q01DX001 (ip), vehicle: saline 97 % of control

Oc1ccccc1C=Nc1ccc(N=Cc2ccccc2O)cc1
inactive: [1] 101 % of control | [2] 95 % of control | [3] 106 % of control

O=C(Nc1cc2ccccc2nc1-c1ccccc1)c1ccccc1
inactive: [1] 92 % of control
